Data as given in US12048684B2, “Arctigenin liquid nano-preparation and preparation method thereof” (Wuhan Academy of Agricultural Sciences, priority 2022, dated 2024).

Assay: Solubility in pure water at room temperature
Format: physicochemical

COc1cc(C[C@H]2C(=O)OC[C@@H]2Cc2ccc(OC)c(OC)c2)ccc1O [arctigenin raw material, arctigenin]
solubility (water solubility of arctigenin): < 0.05%
